Article PMC7560154, “Novel Antimicrobial Peptide from Temporin L in The Treatment of Staphylococcus pseudintermedius and Malassezia pachydermatis in Polymicrobial Inter-Kingdom Infection” (Antibiotics, 2020)
Values after ≈ are worked out from the molar mass of the structure shown. Where two headings read alike, the source gives them in different places. Where a SMILES comes first, the peptide text is derived from it. [ ]: non-standard residue; d: D form. Hyp = O=C(O)[C@@H]1C[C@@H](O)CN1; dHyp = O=C(O)[C@H]1C[C@H](O)CN1; Aic = NC1(C(=O)O)Cc2ccccc2C1; dNle = CCCC[C@@H](N)C(=O)O

What was measured:
M. pachydermatis = conditions: for MMC/MIC Ratio: M. pachydermatis; for MIC Values: broth microdilution, Sabouraud dextrose broth + 1% Tween 80, 48 h, ≥90% inhibition of growth, OD 595 nm; for MMC Values (minimum mycocidal concentration): ≥3 log10 reduction in colony count from starting inoculum, agar 72 h at 30 °C
Description: (§1) MIC of all compounds was determined in Sabouraud Dextrose broth with 1% tween 80 (SB) medium, for M. pachydermatis, and Mueller–Hinton broth (MH), for S. pseudintermedius, by the broth microdilution assay (BMD) in 96-well microtiter plates, as previously reported. Specifically, SB containing 1% Tween 80 was used instead of RPMI 1640 medium. All compounds were dissolved in ethanol and ketoconazole in dimethyl sulfoxide (DMSO). The solutions were serially diluted in SB and MH two-fold from 0.19 to 50 μM. M. pachydermatis suspension was prepared from 3-day-old colonies grown on Sabouraud agar at 30 °C. The final concentration of the yeast inoculum suspensions was equivalent to 1–3 × 10^3 CFU/mL. Bacterial suspensions were diluted to yield an optical density (OD) around 0.5 at 595 nm and further diluted to a final concentration of 1 × 10^6 CFU/mL. The compounds were added to the microbial suspension in each well yielding a final cell concentration of 5 × 10^5 CFU/mL. Positive controls included oxacillin 5 μM (2 μg/mL) and vancomycin 1.4 μM (2 μg/mL) for S. pseudintermedius or ketoconazole 0.2 μM (0.125 μg/mL) for M. pachydermatis. Negative control wells were set to contain bacteria in MH or yeasts in SB plus the amount of ethanol used to dilute each compound. Medium turbidity was measured by a microtiter plate reader (Tecan, Milan, Italy) at 595 nm after 24 h for S. pseudintermedius and 48 h for M. pachydermatis. Absorbance was proportional to microbial growth. The MIC was defined as the lowest concentration of drug that caused a prominent decrease (≥90% inhibition) in visible growth relative to that of the growth control.

[1] = test system: methicillin-susceptible S. pseudintermedius (MSSP); experiment: microbe, parasite or virus in culture; assay type: cell-based, Staphylococcus pseudintermedius; conditions: Staphylococcus pseudintermedius, 24 h
Description: as §1

[2] = test system: methicillin-resistant S. pseudintermedius (MRSP); experiment: microbe, parasite or virus in culture; assay type: cell-based, Staphylococcus pseudintermedius; conditions: Staphylococcus pseudintermedius, 24 h
Description: as §1

MRSP = experiment: Checkerboard synergy of peptide 8 and oxacillin; assay type: cell-based, Staphylococcus pseudintermedius
Description: The interaction between peptide 8 and oxacillin against MRSP was evaluated by the checkerboard method. Briefly, twofold serial dilutions of oxacillin distributed in horizontal rows of 96-well microtiter plate were cross-diluted vertically by twofold serial dilutions of peptide 8 to at least double the MIC. The peptide 8 tested concentration ranging from 0.19 to 12.5 μM and oxacillin from 1.25 to 25 μM (0.5 to 10 μg/mL). Microtiter plates were inoculated with bacteria at an approximate concentration of 10^5 CFU/mL and incubated at 37 °C for 24 h. […] To evaluate the effect of the combination treatment, the fractional inhibitory concentration (FIC) index for each combination was calculated as follows: FIC index = FIC of peptide 8 + FIC of oxacillin, where FIC of peptide 8 (or oxacillin) was defined as the ratio of MIC of peptide 8 (or oxacillin) in combination and MIC of peptide 8 (or oxacillin) alone. The FIC index values were interpreted as follows: ≤0.5, synergistic; >0.5 to ≤1.0, additive; >1.0 to ≤2.0, indifferent; and >2.0, antagonistic effects.

## CC[C@H](C)[C@H](NC(=O)[C@H](CCCNC(=N)N)NC(=O)[C@H]1CCCN1C(=O)[C@@H](CC(C)C)NC(=O)[C@H](Cc1ccccc1)NC(=O)[C@H](CCCCN)NC(=O)[C@H](CO)NC(=O)[C@H](Cc1ccccc1)NC(=O)[C@H](Cc1c[nH]c2ccccc12)NC(=O)[C@@H]1CCCN1C(=O)[C@@H](NC(=O)[C@@H](N)Cc1ccccc1)C(C)C)C(=O)N[C@@H](CC(C)C)C(N)=O [Peptide 3] (H-FVPWFSKF[dL][dP]RIL-NH2)
M. pachydermatis
  MMC/MIC Ratio: 4
  MIC Values: 25 µM
  MMC Values (minimum mycocidal concentration): 100 µM

## CC[C@H](C)[C@H](NC(=O)[C@H](CCCNC(=N)N)NC(=O)[C@@H]1C[C@@H](O)CN1C(=O)[C@@H](CC(C)C)NC(=O)[C@H](Cc1ccccc1)NC(=O)[C@H](CCCCN)NC(=O)[C@H](CO)NC(=O)[C@H](Cc1ccccc1)NC(=O)[C@H](Cc1c[nH]c2ccccc12)NC(=O)[C@@H]1CCCN1C(=O)[C@@H](NC(=O)[C@@H](N)Cc1ccccc1)C(C)C)C(=O)N[C@@H](CC(C)C)C(N)=O [Peptide 4] (H-FVPWFSKF[dL][Hyp]RIL-NH2)
M. pachydermatis
  MMC/MIC Ratio: 4
  MIC Values: 25 µM
  MMC Values (minimum mycocidal concentration): 100 µM

## CC[C@H](C)[C@H](NC(=O)[C@H](CCCNC(=N)N)NC(=O)[C@@H](Cc1c[nH]c2ccccc12)NC(=O)[C@@H](CC(C)C)NC(=O)[C@H](Cc1ccccc1)NC(=O)[C@H](CCCCN)NC(=O)[C@H](CO)NC(=O)[C@H](Cc1ccccc1)NC(=O)[C@H](Cc1c[nH]c2ccccc12)NC(=O)[C@@H]1CCCN1C(=O)[C@@H](NC(=O)[C@@H](N)Cc1ccccc1)C(C)C)C(=O)N[C@@H](CC(C)C)C(N)=O [Peptide 10] (H-FVPWFSKF[dL][dW]RIL-NH2)
M. pachydermatis
  MMC/MIC Ratio: 2
  MIC Values: 12.5 µM
  MMC Values (minimum mycocidal concentration): 25 µM

## CCCC[C@@H](NC(=O)[C@@H](CC(C)C)NC(=O)[C@H](Cc1ccccc1)NC(=O)[C@H](CCCCN)NC(=O)[C@H](CO)NC(=O)[C@H](Cc1ccccc1)NC(=O)[C@H](Cc1c[nH]c2ccccc12)NC(=O)[C@@H]1CCCN1C(=O)[C@@H](NC(=O)[C@@H](N)Cc1ccccc1)C(C)C)C(=O)N[C@@H](CCCNC(=N)N)C(=O)N[C@H](C(=O)N[C@@H](CC(C)C)C(N)=O)[C@@H](C)CC [Peptide 6] (H-FVPWFSKF[dL][dNle]RIL-NH2; N-terminus assumed)
M. pachydermatis
  MMC/MIC Ratio: 4
  MIC Values: 25 µM
  MMC Values (minimum mycocidal concentration): 100 µM

## CC[C@H](C)[C@H](NC(=O)[C@H](CCCNC(=N)N)NC(=O)[C@H]1C[C@H](O)CN1C(=O)[C@@H](CC(C)C)NC(=O)[C@H](Cc1ccccc1)NC(=O)[C@H](CCCCN)NC(=O)[C@H](CO)NC(=O)[C@H](Cc1ccccc1)NC(=O)[C@H](Cc1c[nH]c2ccccc12)NC(=O)[C@@H]1CCCN1C(=O)[C@@H](NC(=O)[C@@H](N)Cc1ccccc1)C(C)C)C(=O)N[C@@H](CC(C)C)C(N)=O [Peptide 5] (H-FVPWFSKF[dL][dHyp]RIL-NH2)
M. pachydermatis
  MMC/MIC Ratio: 4
  MMC Values (minimum mycocidal concentration): 100 µM

## CC[C@H](C)[C@H](NC(=O)[C@H](CCCNC(=N)N)NC(=O)[C@H](CCCCN)NC(=O)[C@@H](CC(C)C)NC(=O)[C@H](Cc1ccccc1)NC(=O)[C@H](CCCCN)NC(=O)[C@H](CO)NC(=O)[C@H](Cc1ccccc1)NC(=O)[C@H](Cc1c[nH]c2ccccc12)NC(=O)[C@@H]1CCCN1C(=O)[C@@H](NC(=O)[C@@H](N)Cc1ccccc1)C(C)C)C(=O)N[C@@H](CC(C)C)C(N)=O [Peptide 7] (H-FVPWFSKF[dL]KRIL-NH2; N-terminus assumed)
M. pachydermatis
  MMC/MIC Ratio: 2
  MIC Values: 12.5 µM
  MMC Values (minimum mycocidal concentration): 25 µM

## CC[C@H](C)[C@H](NC(=O)[C@H](CCCNC(=N)N)NC(=O)CNC(=O)[C@@H](CC(C)C)NC(=O)[C@H](Cc1ccccc1)NC(=O)[C@H](CCCCN)NC(=O)[C@H](CO)NC(=O)[C@H](Cc1ccccc1)NC(=O)[C@H](Cc1c[nH]c2ccccc12)NC(=O)[C@@H]1CCCN1C(=O)[C@@H](NC(=O)[C@@H](N)Cc1ccccc1)C(C)C)C(=O)N[C@@H](CC(C)C)C(N)=O [Peptide 1] (H-FVPWFSKF[dL]GRIL-NH2)
M. pachydermatis
  MIC Values: 25 µM

## CC[C@H](C)[C@H](NC(=O)[C@H](CCCNC(=N)N)NC(=O)[C@@H]1CCCN1C(=O)[C@@H](CC(C)C)NC(=O)[C@H](Cc1ccccc1)NC(=O)[C@H](CCCCN)NC(=O)[C@H](CO)NC(=O)[C@H](Cc1ccccc1)NC(=O)[C@H](Cc1c[nH]c2ccccc12)NC(=O)[C@@H]1CCCN1C(=O)[C@@H](NC(=O)[C@@H](N)Cc1ccccc1)C(C)C)C(=O)N[C@@H](CC(C)C)C(N)=O [Peptide 2] (H-FVPWFSKF[dL]PRIL-NH2)
M. pachydermatis
  MMC/MIC Ratio: 4
  MIC Values: 25 µM
  MMC Values (minimum mycocidal concentration): 100 µM

## CC[C@H](C)[C@H](NC(=O)[C@H](CCCNC(=N)N)NC(=O)C1(NC(=O)[C@@H](CC(C)C)NC(=O)[C@H](Cc2ccccc2)NC(=O)[C@H](CCCCN)NC(=O)[C@H](CO)NC(=O)[C@H](Cc2ccccc2)NC(=O)[C@H](Cc2c[nH]c3ccccc23)NC(=O)[C@@H]2CCCN2C(=O)[C@@H](NC(=O)[C@@H](N)Cc2ccccc2)C(C)C)Cc2ccccc2C1)C(=O)N[C@@H](CC(C)C)C(N)=O [Peptide 11] (H-FVPWFSKF[dL][Aic]RIL-NH2)
M. pachydermatis
  MMC/MIC Ratio: 4
  MIC Values: 25 µM
  MMC Values (minimum mycocidal concentration): 100 µM

## CN[C@H](CC(C)C)C(=O)N[C@H]1C(=O)N[C@@H](CC(N)=O)C(=O)N[C@H]2C(=O)N[C@H]3C(=O)N[C@H](C(=O)N[C@H](C(=O)O)c4cc(O)cc(O)c4-c4cc3ccc4O)[C@H](O)c3ccc(c(Cl)c3)Oc3cc2cc(c3O[C@@H]2O[C@H](CO)[C@@H](O)[C@H](O)[C@H]2O[C@H]2C[C@](C)(N)[C@H](O)[C@H](C)O2)Oc2ccc(cc2Cl)[C@H]1O [Vancomycin, vancomycin, reference compound]
[1]
  MIC: < 1.4 µM
[2]
  MIC: < 1.4 µM

## CC[C@H](C)[C@H](NC(=O)[C@H](CCCNC(=N)N)NC(=O)[C@H](Cc1c[nH]c2ccccc12)NC(=O)[C@@H](CC(C)C)NC(=O)[C@H](Cc1ccccc1)NC(=O)[C@H](CCCCN)NC(=O)[C@H](CO)NC(=O)[C@H](Cc1ccccc1)NC(=O)[C@H](Cc1c[nH]c2ccccc12)NC(=O)[C@@H]1CCCN1C(=O)[C@@H](NC(=O)[C@@H](N)Cc1ccccc1)C(C)C)C(=O)N[C@@H](CC(C)C)C(N)=O [Peptide 9] (H-FVPWFSKF[dL]WRIL-NH2)
M. pachydermatis
  MMC/MIC Ratio: 4
  MIC Values: 25 µM
  MMC Values (minimum mycocidal concentration): 100 µM

## Cc1onc(-c2ccccc2)c1C(=O)N[C@@H]1C(=O)N2[C@@H]1SC(C)(C)[C@@H]2C(=O)O [Oxacillin, oxacillin, reference compound]
[1]; MSSP, Mueller-Hinton broth, ≥90% inhibition, three independent experiments in triplicate, read-out: MIC
  MIC: < 5 µM
[2]; MRSP, Mueller-Hinton broth, ≥90% inhibition, three independent experiments in triplicate, read-out: MIC
  MIC: 25 µM (≈ 10 µg/mL)
MRSP; MRSP, oxacillin alone versus oxacillin in combination
  Oxacillin MIC value reduction in combination with peptide 8: about eight
MRSP; with 1.56 μM peptide 8, MRSP, 1/8 MIC
  Concentration of oxacillin in the most synergistic combination: 3.1 µM
